Molecules are shown by their SMILES. Where only a bound is given, the exact number is not on record here.

One assay addresses CXCR4 (Homo sapiens, UniProt P61073). The assay can be described thus: Compound 1 selectivity panel, buffer IC50. It is filed as cell-based. To be noted: Receptor CXCR4. The procedure:
(§1) The selectivity of Compound 1 was tested by determining the IC50 value against a diverse panel of receptors, enzymes, and ion channels. […] See, Table 1.

In a further assay the target is T1, Duffy (Homo sapiens, UniProt Q16570).
T1 sequence (Q16570 1-336): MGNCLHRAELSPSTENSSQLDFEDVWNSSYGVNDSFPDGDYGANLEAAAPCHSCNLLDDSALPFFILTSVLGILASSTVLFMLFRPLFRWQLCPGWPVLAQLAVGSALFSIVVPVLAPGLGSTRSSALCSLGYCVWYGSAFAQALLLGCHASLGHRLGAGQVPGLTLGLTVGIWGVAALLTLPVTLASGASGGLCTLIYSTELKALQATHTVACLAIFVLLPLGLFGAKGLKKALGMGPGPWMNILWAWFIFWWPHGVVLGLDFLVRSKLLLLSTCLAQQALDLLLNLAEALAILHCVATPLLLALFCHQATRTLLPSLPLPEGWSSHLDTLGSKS
The assay can be described thus: Compound 1 selectivity panel, buffer IC50. In kind it is cell-based. The note with it: Receptor Duffy. The procedure: as §1

A further assay has as its target CCR5 (Homo sapiens, UniProt P51681). As to the kind of experiment: Compound 1 selectivity panel, buffer IC50. It is filed as cell-based. The note with it: Receptor CCR5. The procedure: as §1
The target in a further assay is T2, CXCR1 (Homo sapiens, UniProt P25024).
T2 sequence (P25024 1-350): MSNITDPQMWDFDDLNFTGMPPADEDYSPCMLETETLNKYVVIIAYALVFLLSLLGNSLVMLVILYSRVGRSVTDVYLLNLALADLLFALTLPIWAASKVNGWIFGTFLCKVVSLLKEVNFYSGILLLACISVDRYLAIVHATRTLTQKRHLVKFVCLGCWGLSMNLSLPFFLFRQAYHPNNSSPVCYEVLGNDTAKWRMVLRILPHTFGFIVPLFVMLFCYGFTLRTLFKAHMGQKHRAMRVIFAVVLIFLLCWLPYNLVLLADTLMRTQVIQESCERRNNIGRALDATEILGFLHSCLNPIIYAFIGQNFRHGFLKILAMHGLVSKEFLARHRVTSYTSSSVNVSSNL
As to the kind of experiment: Compound 1 selectivity panel, buffer IC50. It is filed as cell-based. The note with it: Receptor CXCR1. How it is done: as §1

The target of the next assay is CXCR7 (Homo sapiens, UniProt P25106). As to the kind of experiment: Compound 1 selectivity panel, buffer IC50. It is filed as cell-based. The note with it: Receptor CXCR7. How it is done: as §1
CXCR7, sequence (P25106 whole entry, species assumed): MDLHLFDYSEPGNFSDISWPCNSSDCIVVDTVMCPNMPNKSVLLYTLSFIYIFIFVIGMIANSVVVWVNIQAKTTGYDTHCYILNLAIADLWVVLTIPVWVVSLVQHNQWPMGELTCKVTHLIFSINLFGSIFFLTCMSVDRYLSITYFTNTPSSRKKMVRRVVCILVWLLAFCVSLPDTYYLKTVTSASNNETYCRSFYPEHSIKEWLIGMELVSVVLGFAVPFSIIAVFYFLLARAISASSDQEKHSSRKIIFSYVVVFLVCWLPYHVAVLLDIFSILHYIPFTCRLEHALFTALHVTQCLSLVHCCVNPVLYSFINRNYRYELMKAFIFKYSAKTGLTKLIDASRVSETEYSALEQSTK
The next assay has as its target T3, CCR9 (Homo sapiens, UniProt P51686).
T3 sequence (P51686 1-369): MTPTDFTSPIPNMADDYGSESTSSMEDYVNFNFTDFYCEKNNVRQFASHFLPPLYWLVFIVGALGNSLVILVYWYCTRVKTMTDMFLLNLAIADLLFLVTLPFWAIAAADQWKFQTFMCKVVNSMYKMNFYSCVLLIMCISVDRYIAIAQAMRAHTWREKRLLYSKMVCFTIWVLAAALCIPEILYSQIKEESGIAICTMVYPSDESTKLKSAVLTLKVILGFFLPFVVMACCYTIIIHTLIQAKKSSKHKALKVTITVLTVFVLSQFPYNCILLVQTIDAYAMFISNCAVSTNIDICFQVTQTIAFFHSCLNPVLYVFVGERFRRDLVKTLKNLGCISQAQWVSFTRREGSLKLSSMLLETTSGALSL
As to the kind of experiment: Compound 1 selectivity panel, buffer IC50. It is filed as cell-based. The note with it: Receptor CCR9. How it is done:
as §1

The nature of assay [1]: Compound 1 selectivity panel, buffer IC50. In kind it is cell-based. The note with it: Receptor CCR12. The procedure: as §1
The target of the next assay is CXCR6 (Homo sapiens, UniProt O00574). The assay can be described thus: Compound 1 selectivity panel, buffer IC50. The note with it: Receptor CXCR6. In kind it is cell-based. The procedure:
as §1

A further assay relates to KCM cells. The assay can be described thus: KCM orthotopic pancreatic tumor model. In kind it is in vivo, mice. From the text: The subcutaneous CT26 colon cancer model and the orthotopic KCM pancreatic cancer model were used to assess the effects of a CCR4 inhibitor, Compound 1, in combination with anti-CTLA-4 antibody (BioXcell: anti-mouse CTLA-4 (Clone: 9H10), raised in Syrian Hamster, purified with protein G). CT26 cells were implanted into the flanks of 9 week female Balb/c mice. Mice were randomized into study groups based on the tumor sizes on day 6, and dosing of both Compound 1 and anti-CTLA-4 started on day 7. For the orthotopic pancreatic cancer model, KCM cells were implanted directly into the pancreas, and dosing of Compound 1 and anti-CTLA-4 also began on day 7. Compound 1 was dosed orally twice daily at 30 mg/kg, and anti-CTLA-4 was dosed IP on days 7, 11 and 15 at 100 μg/mouse.
As briefly described in Example 1, above, a KCM pancreatic cancer model was used to assess the effectiveness of a CCR4 inhibitor in combination with an anti-CTLA-4 antibody. The mice were broken into 4 groups (n=12 each group): isotype antibody+Vehicle; Isotype Antibody+Compound 1; anti-CTLA-4+Vehicle; anti-CTLA-4+Compound 1. The mice used were 7-8 week old C57BL/6 female mice. […]
After completion of the study, the tumor/pancreases weight for each group was measured. […]
Changes in suppressive immune cell populations were also measured at the completion of this study. […] Pancreas from sham-operated mice were processed and analyzed. […]

Another assay addresses T4, CCR4 (Homo sapiens, UniProt P51679).
T4 sequence (P51679 1-360): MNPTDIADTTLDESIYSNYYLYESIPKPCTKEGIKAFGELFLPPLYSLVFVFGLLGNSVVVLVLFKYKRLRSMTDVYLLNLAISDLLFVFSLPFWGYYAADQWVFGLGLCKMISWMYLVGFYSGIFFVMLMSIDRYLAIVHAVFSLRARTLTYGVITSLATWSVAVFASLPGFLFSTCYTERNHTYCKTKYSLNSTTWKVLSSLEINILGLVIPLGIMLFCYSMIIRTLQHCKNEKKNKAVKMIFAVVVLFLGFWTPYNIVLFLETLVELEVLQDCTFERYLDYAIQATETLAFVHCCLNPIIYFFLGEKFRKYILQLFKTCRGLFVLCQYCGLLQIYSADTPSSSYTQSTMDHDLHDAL
The assay can be described thus: CCL22 chemotaxis, human cells. In kind it is cell-based.

CXCR6, sequence (O00574 whole entry, species assumed): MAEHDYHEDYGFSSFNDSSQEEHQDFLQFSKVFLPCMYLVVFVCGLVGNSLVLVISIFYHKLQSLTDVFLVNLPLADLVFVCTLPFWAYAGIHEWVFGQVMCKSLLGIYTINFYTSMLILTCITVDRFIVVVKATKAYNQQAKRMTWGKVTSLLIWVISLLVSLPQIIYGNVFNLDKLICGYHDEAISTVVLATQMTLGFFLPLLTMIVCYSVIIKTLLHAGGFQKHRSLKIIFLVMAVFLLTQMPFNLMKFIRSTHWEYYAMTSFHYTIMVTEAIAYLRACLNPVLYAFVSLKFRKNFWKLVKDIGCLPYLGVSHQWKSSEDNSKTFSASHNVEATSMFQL
CXCR4, sequence (P61073 whole entry, species assumed): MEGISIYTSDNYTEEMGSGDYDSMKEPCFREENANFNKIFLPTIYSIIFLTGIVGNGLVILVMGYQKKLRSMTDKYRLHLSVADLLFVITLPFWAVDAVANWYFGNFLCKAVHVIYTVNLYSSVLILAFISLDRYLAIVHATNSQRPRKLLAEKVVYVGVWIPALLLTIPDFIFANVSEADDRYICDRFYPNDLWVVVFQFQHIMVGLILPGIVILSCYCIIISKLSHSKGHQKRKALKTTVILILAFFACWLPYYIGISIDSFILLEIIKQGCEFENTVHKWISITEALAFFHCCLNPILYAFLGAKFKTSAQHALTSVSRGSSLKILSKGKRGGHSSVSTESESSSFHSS
CCR5, sequence (P51681 whole entry, species assumed): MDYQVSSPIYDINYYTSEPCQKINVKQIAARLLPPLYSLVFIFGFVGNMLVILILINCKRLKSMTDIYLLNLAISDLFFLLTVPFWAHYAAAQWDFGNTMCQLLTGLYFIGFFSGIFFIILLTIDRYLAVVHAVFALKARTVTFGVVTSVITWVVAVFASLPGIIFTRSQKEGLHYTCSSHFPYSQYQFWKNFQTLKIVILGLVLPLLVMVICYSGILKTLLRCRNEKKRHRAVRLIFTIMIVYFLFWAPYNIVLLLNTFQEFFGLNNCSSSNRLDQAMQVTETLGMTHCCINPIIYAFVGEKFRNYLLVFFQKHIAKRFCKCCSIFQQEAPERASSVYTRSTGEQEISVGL

A word on the IC50: it is the concentration that inhibits the measured activity by half. A lower IC50 goes with inhibition by little substance. On to `C[C@@H](Nc1cc(C2CCN([C@H]3CCCN(CCC(=O)O)C3)CC2)ccc1Cl)c1ccc(Cl)cc1Cl` [Compound 1], for which the concentration for half-maximal inhibition (IC50) at CXCR4, at Duffy, against CCR5, against CXCR1, against CXCR7 and against CCR9 was above 10 µM throughout. For the same compound, the half-inhibitory concentration (IC50) (in assay [1]; against CXCR6) was above 10 µM throughout. For the same compound, the Spleen weight entry in the assay with KCM cells is on record as “reduced”. Further, the “Tumor burden (tumor + pancreas weight)” value in the assay on KCM cells (Compound 1 bid, anti-CTLA-4 100 μg i.p.) is recorded as “significantly reduced tumor burden”. Also, the “Chemotaxis A2” value on CCR4 (Human CEM cells, 100% serum) was found to be 20 nM; at CCR4 (Human CEM cells, buffer), 2 nM; on CCR4 (Human lymphocytes, 100% serum) it was 20 nM; at CCR4 (Human lymphocytes, buffer) it was 10 nM.

These data come from patent US12011439B2, “Combination therapy using C—C chemokine receptor 4 (CCR4) antagonists and one or more immune checkpoint inhibitors” (CHEMOCENTRYX, INC., priority 2018, dated 2024).
